Where “and” joins values, the source holds several entries; their conditions need not be identical. Equal values may be shown once.
Test system: 653999-131-R-J2-PDC complex spheroids, growth inhibition
Test: Anticancer human tumor 653999-131-R-J2-PDC patient-derived lung adenocarcinoma cell line growth inhibition [RAS]
Conditions: for viability, T/C: stronger effect = lower value
Method in brief: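 Agents were tested in combination matrices in half-log decrements from a top concentration at or near clinical Cmax (10 microM if undetermined). Targets were multi-cell spheroids of tumour lines plus HUVEC and MSC stromal cells.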

[1] = curve of first compound, second compound 0.0316 µM
[2] = curve of first compound, second compound 0.1 µM
[3] = curve of first compound, second compound 0.316 µM
[4] = curve of first compound, second compound 1 µM
[5] = curve of first compound, second compound 3.16 µM
[6] = curve of first compound, second compound 10 µM
[7] = second compound 0.0316 µM, first compound 0.00316 µM
[8] = second compound 0.0316 µM, first compound 0.01 µM
[9] = second compound 0.0316 µM, first compound 0.0316 µM
[10] = second compound 0.0316 µM, first compound 0.1 µM
[11] = second compound 0.0316 µM, first compound 0.316 µM
[12] = second compound 0.0316 µM, first compound 1 µM
[13] = second compound 0.1 µM, first compound 0.00316 µM
[14] = second compound 0.1 µM, first compound 0.01 µM
[15] = second compound 0.1 µM, first compound 0.0316 µM
[16] = second compound 0.1 µM, first compound 0.1 µM
[17] = second compound 0.1 µM, first compound 0.316 µM
[18] = second compound 0.1 µM, first compound 1 µM
[19] = second compound 0.316 µM, first compound 0.00316 µM
[20] = second compound 0.316 µM, first compound 0.01 µM
[21] = second compound 0.316 µM, first compound 0.0316 µM
[22] = second compound 0.316 µM, first compound 0.1 µM
[23] = second compound 0.316 µM, first compound 0.316 µM
[24] = second compound 0.316 µM, first compound 1 µM
[25] = second compound 1 µM, first compound 0.00316 µM
[26] = second compound 1 µM, first compound 0.01 µM
[27] = second compound 1 µM, first compound 0.0316 µM
[28] = second compound 1 µM, first compound 0.1 µM
[29] = second compound 1 µM, first compound 0.316 µM
[30] = second compound 1 µM, first compound 1 µM
[31] = second compound 3.16 µM, first compound 0.00316 µM
[32] = second compound 3.16 µM, first compound 0.01 µM
[33] = second compound 3.16 µM, first compound 0.0316 µM
[34] = second compound 3.16 µM, first compound 0.1 µM
[35] = second compound 3.16 µM, first compound 0.316 µM
[36] = second compound 3.16 µM, first compound 1 µM
[37] = second compound 10 µM, first compound 0.00316 µM
[38] = second compound 10 µM, first compound 0.01 µM
[39] = second compound 10 µM, first compound 0.0316 µM
[40] = second compound 10 µM, first compound 0.1 µM
[41] = second compound 10 µM, first compound 0.316 µM
[42] = second compound 10 µM, first compound 1 µM
[43] = curve of first compound, second compound 0.000949 µM
[44] = curve of first compound, second compound 0.003 µM
[45] = curve of first compound, second compound 0.00949 µM
[46] = curve of first compound, second compound 0.03 µM
[47] = curve of first compound, second compound 0.0949 µM
[48] = curve of first compound, second compound 0.3 µM
[49] = second compound 0.000949 µM, first compound 0.0316 µM
[50] = second compound 0.000949 µM, first compound 0.1 µM
[51] = second compound 0.000949 µM, first compound 0.316 µM
[52] = second compound 0.000949 µM, first compound 1 µM
[53] = second compound 0.000949 µM, first compound 3.16 µM
[54] = second compound 0.000949 µM, first compound 10 µM
[55] = second compound 0.003 µM, first compound 0.0316 µM
[56] = second compound 0.003 µM, first compound 0.1 µM
[57] = second compound 0.003 µM, first compound 0.316 µM
[58] = second compound 0.003 µM, first compound 1 µM
[59] = second compound 0.003 µM, first compound 3.16 µM
[60] = second compound 0.003 µM, first compound 10 µM
[61] = second compound 0.00949 µM, first compound 0.0316 µM
[62] = second compound 0.00949 µM, first compound 0.1 µM
[63] = second compound 0.00949 µM, first compound 0.316 µM
[64] = second compound 0.00949 µM, first compound 1 µM
[65] = second compound 0.00949 µM, first compound 3.16 µM
[66] = second compound 0.00949 µM, first compound 10 µM
[67] = second compound 0.03 µM, first compound 0.0316 µM
[68] = second compound 0.03 µM, first compound 0.1 µM
[69] = second compound 0.03 µM, first compound 0.316 µM
[70] = second compound 0.03 µM, first compound 1 µM
[71] = second compound 0.03 µM, first compound 3.16 µM
[72] = second compound 0.03 µM, first compound 10 µM
[73] = second compound 0.0949 µM, first compound 0.0316 µM
[74] = second compound 0.0949 µM, first compound 0.1 µM
[75] = second compound 0.0949 µM, first compound 0.316 µM
[76] = second compound 0.0949 µM, first compound 1 µM
[77] = second compound 0.0949 µM, first compound 3.16 µM
[78] = second compound 0.0949 µM, first compound 10 µM
[79] = second compound 0.3 µM, first compound 0.0316 µM
[80] = second compound 0.3 µM, first compound 0.1 µM
[81] = second compound 0.3 µM, first compound 0.316 µM
[82] = second compound 0.3 µM, first compound 1 µM
[83] = second compound 0.3 µM, first compound 3.16 µM
[84] = second compound 0.3 µM, first compound 10 µM
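Note: spheroids exposed to the agents for seven days before the readout.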

CCN1CCN(Cc2ccc(Nc3ncc(F)c(-c4cc(F)c5nc(C)n(C(C)C)c5c4)n3)nc2)CC1 + C#Cc1c(F)ccc2cc(O)cc(-c3ncc4c(N5CC6CCC(C5)N6)nc(OCC56CCCN5CC(F)C6)nc4c3F)c12
IC50 [1]: > 1000 nM
IC50 [2]: > 1000 nM
IC50 [3]: 28.2 nM
IC50 [4]: < 3.16 nM
IC50 [5]: < 3.16 nM
IC50 [6]: < 3.16 nM
viability, T/C [7]: 74.8%
viability, T/C [8]: 88.1%
viability, T/C [9]: 65.6%
viability, T/C [10]: 57.4%
viability, T/C [11]: 62%
viability, T/C [12]: 63.2%
viability, T/C [13]: 70.5%
viability, T/C [14]: 71.8%
viability, T/C [15]: 57.2%
viability, T/C [16]: 52.1%
viability, T/C [17]: 54.8%
viability, T/C [18]: 61%
viability, T/C [19]: 64.7%
viability, T/C [20]: 62.8%
viability, T/C [21]: 43.8%
viability, T/C [22]: 49.3%
viability, T/C [23]: 50.8%
viability, T/C [24]: 50.5%
viability, T/C [25]: 37.7%
viability, T/C [26]: 43.6%
viability, T/C [27]: 39.9%
viability, T/C [28]: 30.9%
viability, T/C [29]: 29.9%
viability, T/C [30]: 41.7%
viability, T/C [31]: 35.3%
viability, T/C [32]: 31.7%
viability, T/C [33]: 34.4%
viability, T/C [34]: 26.6%
viability, T/C [35]: 33.3%
viability, T/C [36]: 33.3%
viability, T/C [37]: 18.4%
viability, T/C [38]: 17.3%
viability, T/C [39]: 22.3%
viability, T/C [40]: 19.4%
viability, T/C [41]: 20.2%
viability, T/C [42]: 26.9%

Nc1ccn(C2OC(CO)C(O)C2(F)F)c(=O)n1 (stereo not given)
viability, T/C (compound 0.00316 µM): 90.2% [middle of 4 runs]
viability, T/C (compound 0.01 µM): 76.4% [middle of 4 runs]
viability, T/C (compound 0.0316 µM): 62.9% [middle of 4 runs]
viability, T/C (compound 0.1 µM): 51.2% [middle of 4 runs]
viability, T/C (compound 0.316 µM): 43.1% [middle of 4 runs]
viability, T/C (compound 1 µM): 34.1% and 30.3% (2×) and 33.9%
IC50 (curve of compound): 99.5 nM [middle of 4 runs]

CC(Nc1ccc2c(c1)OCCn1cc(N3C(=O)OCC3C(F)F)nc1-2)C(N)=O (stereo not given) + CCn1c(-c2cc(N3CCN(C)CC3)cnc2C(C)OC)c2c3cc(ccc31)-c1csc(n1)CC(NC(=O)C1CC1C)C(=O)N1CCCC(N1)C(=O)OCC(C)(C)C2
IC50 [43]: 160 nM
IC50 [44]: 152 nM
IC50 [45]: < 31.6 nM
IC50 [46]: < 31.6 nM
IC50 [47]: < 31.6 nM
IC50 [48]: < 31.6 nM
viability, T/C [49]: 72.8%
viability, T/C [50]: 57.9%
viability, T/C [51]: 37.4%
viability, T/C [52]: 33.5%
viability, T/C [53]: 24.9%
viability, T/C [54]: 18.5%
viability, T/C [55]: 60%
viability, T/C [56]: 56.5%
viability, T/C [57]: 38.9%
viability, T/C [58]: 35.6%
viability, T/C [59]: 17.2%
viability, T/C [60]: 13.2%
viability, T/C [61]: 37.8%
viability, T/C [62]: 32.8%
viability, T/C [63]: 29.7%
viability, T/C [64]: 19.1%
viability, T/C [65]: 16.3%
viability, T/C [66]: 10.7%
viability, T/C [67]: 34.5%
viability, T/C [68]: 27.7%
viability, T/C [69]: 21.2%
viability, T/C [70]: 12%
viability, T/C [71]: 11.2%
viability, T/C [72]: 6.45%
viability, T/C [73]: 27.4%
viability, T/C [74]: 19.4%
viability, T/C [75]: 12%
viability, T/C [76]: 13%
viability, T/C [77]: 8.97%
viability, T/C [78]: 5.82%
viability, T/C [79]: 20.6%
viability, T/C [80]: 14.2%
viability, T/C [81]: 12.9%
viability, T/C [82]: 8.03%
viability, T/C [83]: 7.08%
viability, T/C [84]: 4.92%

CCC(CC)c1cc(NC2CCC(N)C2)n2nccc2n1 (stereo not given) + CCn1c(-c2cc(N3CCN(C)CC3)cnc2C(C)OC)c2c3cc(ccc31)-c1csc(n1)CC(NC(=O)C1CC1C)C(=O)N1CCCC(N1)C(=O)OCC(C)(C)C2
IC50 [43]: 1280 nM
IC50 [44]: 722 nM
IC50 [45]: 195 nM
IC50 [46]: < 31.6 nM
IC50 [47]: < 31.6 nM
IC50 [48]: < 31.6 nM
viability, T/C [49]: 84.6%
viability, T/C [50]: 101%
viability, T/C [51]: 91.2%
viability, T/C [52]: 59.9%
viability, T/C [53]: 12%
viability, T/C [54]: 15%
viability, T/C [55]: 59.1%
viability, T/C [56]: 88.6%
viability, T/C [57]: 84.2%
viability, T/C [58]: 39.2%
viability, T/C [59]: 10.5%
viability, T/C [60]: 18.8%
viability, T/C [61]: 55.8%
viability, T/C [62]: 56.5%
viability, T/C [63]: 45.6%
viability, T/C [64]: 26.4%
viability, T/C [65]: 16.4%
viability, T/C [66]: 17.4%
viability, T/C [67]: 38.8%
viability, T/C [68]: 51%
viability, T/C [69]: 29.6%
viability, T/C [70]: 20.4%
viability, T/C [71]: 12.5%
viability, T/C [72]: 18.8%
viability, T/C [73]: 29.3%
viability, T/C [74]: 27.8%
viability, T/C [75]: 28.9%
viability, T/C [76]: 12.1%
viability, T/C [77]: 11.7%
viability, T/C [78]: 18.9%
viability, T/C [79]: 29.8%
viability, T/C [80]: 24.9%
viability, T/C [81]: 26.4%
viability, T/C [82]: 12.7%
viability, T/C [83]: 13.3%
viability, T/C [84]: 17.5%

Nc1ccn(C2OC(CO)C(O)C2(F)F)c(=O)n1 (stereo not given) + C#Cc1c(F)ccc2cc(O)cc(-c3ncc4c(N5CC6CCC(C5)N6)nc(OCC56CCCN5CC(F)C6)nc4c3F)c12
IC50 [1]: 71.1 nM
IC50 [2]: 36.8 nM
IC50 [3]: 11.8 nM
IC50 [4]: 3.37 nM
IC50 [5]: < 3.16 nM
IC50 [6]: < 3.16 nM
viability, T/C [7]: 98.5%
viability, T/C [8]: 74.4%
viability, T/C [9]: 58.3%
viability, T/C [10]: 48.5%
viability, T/C [11]: 36.6%
viability, T/C [12]: 32.4%
viability, T/C [13]: 96.9%
viability, T/C [14]: 59.8%
viability, T/C [15]: 56.4%
viability, T/C [16]: 46%
viability, T/C [17]: 34.6%
viability, T/C [18]: 31.4%
viability, T/C [19]: 58.1%
viability, T/C [20]: 52.4%
viability, T/C [21]: 39.2%
viability, T/C [22]: 32.1%
viability, T/C [23]: 27.6%
viability, T/C [24]: 26.5%
viability, T/C [25]: 50.5%
viability, T/C [26]: 43%
viability, T/C [27]: 29.8%
viability, T/C [28]: 20.9%
viability, T/C [29]: 19.9%
viability, T/C [30]: 18.9%
viability, T/C [31]: 35.4%
viability, T/C [32]: 28.4%
viability, T/C [33]: 19.1%
viability, T/C [34]: 14.9%
viability, T/C [35]: 14.6%
viability, T/C [36]: 14.5%
viability, T/C [37]: 33.6%
viability, T/C [38]: 13.5%
viability, T/C [39]: 21.2%
viability, T/C [40]: 13.9%
viability, T/C [41]: 12.7%
viability, T/C [42]: 10.1%

Reference: PubChem BioAssay AID2060886 (Molecular Pharmacology Branch, DTP, NCI, 2025)
